Measured values from ChEMBL document CHEMBL1153997, “Discovery of oxazolo[4,5-b]pyridines and related heterocyclic analogs as novel SIRT1 activators” (Bioorg Med Chem Lett, 2009).

What was measured:
[1] = target: T1, NAD-dependent protein deacetylase sirtuin-1 (Homo sapiens) (UniProt Q96EB6); experiment: Activation of human SIRT1 expressed in Escherichia coli BL21 (DE3) assessed as concentration required to increase 50% enzyme activity by fluorescence polarization assay
T1 sequence (whole entry): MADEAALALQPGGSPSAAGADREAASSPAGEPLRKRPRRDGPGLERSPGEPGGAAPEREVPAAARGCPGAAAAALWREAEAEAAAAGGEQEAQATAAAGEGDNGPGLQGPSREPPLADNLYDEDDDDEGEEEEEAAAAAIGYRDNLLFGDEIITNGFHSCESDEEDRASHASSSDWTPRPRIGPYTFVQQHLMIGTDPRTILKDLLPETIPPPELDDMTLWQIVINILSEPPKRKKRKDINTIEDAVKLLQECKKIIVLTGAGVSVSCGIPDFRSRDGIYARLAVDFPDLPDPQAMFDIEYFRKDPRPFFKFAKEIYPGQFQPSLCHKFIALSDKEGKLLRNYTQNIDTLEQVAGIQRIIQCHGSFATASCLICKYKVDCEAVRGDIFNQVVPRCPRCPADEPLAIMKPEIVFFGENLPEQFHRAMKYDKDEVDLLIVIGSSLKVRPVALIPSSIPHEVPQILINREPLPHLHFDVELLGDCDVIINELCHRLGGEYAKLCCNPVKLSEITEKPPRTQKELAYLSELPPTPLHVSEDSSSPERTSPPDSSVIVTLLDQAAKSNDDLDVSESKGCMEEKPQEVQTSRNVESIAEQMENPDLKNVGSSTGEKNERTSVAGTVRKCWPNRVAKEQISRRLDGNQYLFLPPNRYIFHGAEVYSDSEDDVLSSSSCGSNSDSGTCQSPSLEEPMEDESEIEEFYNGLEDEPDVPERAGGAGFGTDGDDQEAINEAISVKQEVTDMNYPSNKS

[2] = target: T1, NAD-dependent protein deacetylase sirtuin-1 (Homo sapiens); experiment: Activation of human SIRT1 expressed in Escherichia coli BL21 (DE3) assessed as maximum activation of enzyme activity by fluorescence polarization assay

Row | SMILES | EC1.5 [1] [µM] | max activation [2] [%]
1 | COc1ccc(C(=O)Nc2ccccc2-c2nc3ncccc3o2)cc1OC | 0.9 | 170
2 | COc1cc(C)ccc1C(=O)Nc1ccccc1-c1nc2ncccc2[nH]1 | 4.1 | 250
3 | COc1ccc(C(=O)Nc2cc(CN(C)C)cc(-c3nc4ncccc4o3)c2)cc1OC | 1.1 | 200
4 | COc1ccc(C(=O)Nc2cc(C(=O)NCCN(C)C)cc(-c3nc4ncccc4o3)c2)cc1OC | 0.7 | 240
5 | COc1ccc(C(=O)Nc2ccc(-c3nc4ncccc4[nH]3)cc2)cc1OC | 1.6 | 180
6 | CN(C)CCNC(=O)c1cc(NC(=O)c2cccc(N(C)C)c2)cc(-c2nc3ncccc3o2)c1 | 1.8 | 330
7 | O=C(Nc1ccccc1-c1nc2ccccc2[nH]1)c1cnc2ccccc2n1 | 0.3 | 253
8 | COc1cc(OC)cc(C(=O)Nc2ccccc2-c2nc3ccccc3[nH]2)c1 | 1.7 | 180
9 | COc1ccc(C(=O)Nc2cccc(-c3nc4ncccc4[nH]3)c2)c(OC)c1 | 0.5 | 232
10 | COc1ccc(C(=O)Nc2ccccc2-c2nc3ncccc3[nH]2)cc1OC | 0.5 | 270
11 | COc1ccc(C(=O)Nc2cc(CN3CCNCC3)cc(-c3nc4ncccc4o3)c2)cc1OC | 1.1 | 240
12 | COc1ccc(C(=O)Nc2ccccc2-c2nc3ccccc3[nH]2)cc1OC | 0.4 | 595
13 | CN(C)c1cccc(C(=O)Nc2cccc(-c3nc4ncccc4o3)c2)c1 | 25 | 207
14 | O=C(Nc1ccc(CN2CCNCC2)cc1-c1nc2ccccc2[nH]1)c1cnc2ccccc2n1 | 0.4 | 820
15 | COc1ccc(C(=O)Nc2ccc(-c3nc4ncccc4o3)cc2)cc1OC | > 100 | –
16 | O=C(Nc1ccccc1-c1nc2ncccc2[nH]1)c1ccc(N2CCOCC2)cc1 | 0.9 | 273
17 | COc1cc(C)ccc1C(=O)Nc1ccc(-c2nc3ncccc3[nH]2)cc1 | 2.3 | 150
18 | CN(C)c1cccc(C(=O)Nc2ccc(-c3nc4ncccc4o3)cc2)c1 | > 100 | –
19 | COc1ccc(C(=O)Nc2cc(CN3CCNCC3)cc(-c3nc4ncccc4o3)c2)c(OC)c1 | 0.5 | 220
20 | CN(C)c1cccc(C(=O)Nc2ccccc2-c2nc3ncccc3o2)c1 | 4.4 | 209
21 | COc1ccc(C(=O)Nc2cccc(-c3nc4ncccc4o3)c2)cc1OC | 6 | 240
22 | Oc1ccc(/C=C/c2cc(O)cc(O)c2)cc1 | – | 200
23 | CN(C)c1ccc(C(=O)Nc2ccccc2-c2nc3ncccc3[nH]2)cc1 | 0.7 | 230
24 | COc1ccc(C(=O)Nc2cccc(-c3nc4ncccc4[nH]3)c2)cc1OC | 1.4 | 324
25 | COc1ccc(C(=O)Nc2ccccc2-c2nc3ccccc3[nH]2)cc1CN1CCOCC1 | 0.5 | 314
